For experiment [1], the system named is HCV genotype 1a (H77 strain) replicon in HUH-7 cells. The experiment is described as follows: HCV replicon luciferase reporter assay, genotype 1a. Conditions: Hepatitis C virus, Huh-7, 72 h, HCV genotype 1a replicon luciferase, 3 days incubation. It is filed as cell-based. Summed up: (§1)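 Replicon inhibition for both genotypes was measured as Renilla luciferase signal (EnduRen, 7.5 μM final, 2 h) after 3-day, 37° C exposure of replicon-bearing HUH-7 cells in 4% FCS DMEM, 0.5% DMSO. The 1b construct carries S1179I; the 1a H77 construct carries P1496L and S2204I. Twenty-point, 3-fold dilutions were fitted four-parametrically for EC50, and CC50 was taken from multiplexed Cell Titer-Blue.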
A general note: Replicon systems follow genome replication, usually without infectious particles.

The subject of experiment [2] is HCV genotype 1b (Con1) replicon in HUH-7 cells. Kind of experiment: HCV replicon luciferase reporter assay, genotype 1b. It is filed as cell-based. Particulars: Hepatitis C virus, Huh-7, 72 h, HCV genotype 1b replicon luciferase, 3 days incubation. Summed up:
as §1

pEC50: −log10 of the molar value. Read-outs that look alike come from different tables or passages of the source.

For orientation: pEC50 means the negative decadic logarithm of the EC50, by convention in mol/L. On to `CCC(CC)(OC(=O)N[C@@H]1C(=O)N2C[C@H](Oc3nccc4c5c(ccc34)OCCO5)C[C@H]2C(=O)N[C@]2(C(=O)NS(=O)(=O)C3CC3)C[C@H]2/C=C\CC[C@H](C)C[C@H]1C)C(F)(F)F` [Compound 5261, 3-(trifluoromethyl)pentan-3-yl ((2R,6S,7R,9S,13aS,14aR,16aS,Z)-14a-((cyclopropylsulfonyl)carbamoyl)-2-((2,3-dihydro-[1,4]dioxino[2,3-f]isoquinolin-7-yl)oxy)-7,9-dimethyl-5,16-dioxo-1,2,3,5,6,7,8,9,10,11,13a,14,14a,15,16,16a-hexadecahydrocyclopropa[e]pyrrolo[1,2-a][1,4]diazacyclopentadecin-6-yl)carbamate], for which the pEC50 in experiment [1] (read-out: LE_1a (EC50)) was 7.85; in experiment [1] (read-out: LE_1a (EC50, range)), 6.99 to 8.32; in experiment [2] (read-out: LE_1b (EC50)) it was 8.66; in experiment [2] (read-out: LE_1b (EC50, range)) it was greater than 8.26.

On to `CCC(CC)(OC(=O)N[C@@H]1C(=O)N2C[C@H](Oc3nccc4c5c(ccc34)OCCO5)C[C@H]2C(=O)N[C@]2(C(=O)NS(=O)(=O)C3CC3)C[C@H]2/C=C\CC[C@@H](C)C[C@H]1C)C(F)(F)F` [Compound 5262, 3-(trifluoromethyl)pentan-3-yl ((2R,6S,7R,9R,13aS,14aR,16aS,Z)-14a-((cyclopropylsulfonyl)carbamoyl)-2-((2,3-dihydro-[1,4]dioxino[2,3-f]isoquinolin-7-yl)oxy)-7,9-dimethyl-5,16-dioxo-1,2,3,5,6,7,8,9,10,11,13a,14,14a,15,16,16a-hexadecahydrocyclopropa[e]pyrrolo[1,2-a][1,4]diazacyclopentadecin-6-yl)carbamate], for which the pEC50 was greater than 8.26 in experiment [1] (read-out: LE_1a (EC50, range)) and greater than 8.26 in experiment [2] (read-out: LE_1b (EC50, range)).

On to `C[C@H]1CC/C=C\[C@@H]2C[C@@]2(C(=O)NS(=O)(=O)C2CC2)NC(=O)[C@@H]2C[C@@H](Oc3nccc4c5c(ccc34)OCCO5)CN2C(=O)[C@@H](NC(=O)O[C@@H]2C[C@@H]3C[C@@H]3C2)[C@H](C)C1` [Compound 5263, (1R,3r,5S)-bicyclo[3.1.0]hexan-3-yl((2R,6S,7R,9S,13aS,14aR,16aS,Z)-14a-((cyclopropylsulfonyl)carbamoyl)-2-((2,3-dihydro-[1,4]dioxino[2,3-f]isoquinolin-7-yl)oxy)-7,9-dimethyl-5,16-dioxo-1,2,3,5,6,7,8,9,10,11,13a,14,14a,15,16,16a-hexadecahydrocyclopropa[e]pyrrolo[1,2-a][1,4]diazacyclopentadecin-6-yl)carbamate], for which the pEC50 is 6.99 to 8.32 in experiment [1] (read-out: LE_1a (EC50, range)) and greater than 8.26 in experiment [2] (read-out: LE_1b (EC50, range)).

For the molecule `C[C@@H]1CC/C=C\[C@@H]2C[C@@]2(C(=O)NS(=O)(=O)C2CC2)NC(=O)[C@@H]2C[C@@H](Oc3nccc4c5c(ccc34)OCCO5)CN2C(=O)[C@@H](NC(=O)O[C@@H]2C[C@@H]3C[C@@H]3C2)[C@H](C)C1` [Compound 5264, (1R,3r,5S)-bicyclo[3.1.0]hexan-3-yl((2R,6S,7R,9R,13aS,14aR,16aS,Z)-14a-((cyclopropylsulfonyl)carbamoyl)-2-((2,3-dihydro-[1,4]dioxino[2,3-f]isoquinolin-7-yl)oxy)-7,9-dimethyl-5,16-dioxo-1,2,3,5,6,7,8,9,10,11,13a,14,14a,15,16,16a-hexadecahydrocyclopropa[e]pyrrolo[1,2-a][1,4]diazacyclopentadecin-6-yl)carbamate], the pEC50 in experiment [1] (read-out: LE_1a (EC50, range)) is greater than 8.26; in experiment [2] (read-out: LE_1b (EC50, range)), greater than 8.26.

`CCC(C)(CC)OC(=O)N[C@@H]1C(=O)N2C[C@H](Oc3nccc4c5c(ccc34)OCCO5)C[C@H]2C(=O)N[C@]2(C(=O)NS(=O)(=O)C3CC3)C[C@H]2/C=C\CC[C@H](C)C[C@H]1C` [Compound 5265, 3-methylpentan-3-yl((2R,6S,7R,9S,13aS,14aR,16aS,Z)-14a-((cyclopropylsulfonyl)carbamoyl)-2-((2,3-dihydro-[1,4]dioxino[2,3-f]isoquinolin-7-yl)oxy)-7,9-dimethyl-5,16-dioxo-1,2,3,5,6,7,8,9,10,11,13a,14,14a,15,16,16a-hexadecahydrocyclopropa[e]pyrrolo[1,2-a][1,4]diazacyclopentadecin-6-yl)carbamate]: the pEC50 is 6.99 to 8.32 in experiment [1] (read-out: LE_1a (EC50, range)) and greater than 8.26 in experiment [2] (read-out: LE_1b (EC50, range)).

On to `CCC(C)(CC)OC(=O)N[C@@H]1C(=O)N2C[C@H](Oc3nccc4c5c(ccc34)OCCO5)C[C@H]2C(=O)N[C@]2(C(=O)NS(=O)(=O)C3CC3)C[C@H]2/C=C\CC[C@@H](C)C[C@H]1C` [Compound 5266, 3-methylpentan-3-yl((2R,6S,7R,9R,13aS,14aR,16aS,Z)-14a-((cyclopropylsulfonyl)carbamoyl)-2-((2,3-dihydro-[1,4]dioxino[2,3-f]isoquinolin-7-yl)oxy)-7,9-dimethyl-5,16-dioxo-1,2,3,5,6,7,8,9,10,11,13a,14,14a,15,16,16a-hexadecahydrocyclopropa[e]pyrrolo[1,2-a][1,4]diazacyclopentadecin-6-yl)carbamate], for which the negative-log EC50 (pEC50) was greater than 8.26 in experiment [1] (read-out: LE_1a (EC50, range)) and greater than 8.26 in experiment [2] (read-out: LE_1b (EC50, range)).

Take `C[C@H]1CC/C=C\[C@@H]2C[C@@]2(C(=O)NS(=O)(=O)C2CC2)NC(=O)[C@@H]2C[C@@H](Oc3nccc4c5c(ccc34)OC(F)(F)O5)CN2C(=O)[C@@H](NC(=O)OC(C)(C)C(F)(F)F)[C@H](C)C1` [Compound 5267, 1,1,1-trifluoro-2-methylpropan-2-yl((2R,6S,7R,9S,13aS,14aR,16aS,Z)-14a-((cyclopropylsulfonyl)carbamoyl)-2-((2,2-difluoro-[1,3]dioxolo[4,5-f]isoquinolin-6-yl)oxy)-7,9-dimethyl-5,16-dioxo-1,2,3,5,6,7,8,9,10,11,13a,14,14a,15,16,16a-hexadecahydrocyclopropa[e]pyrrolo[1,2-a][1,4]diazacyclopentadecin-6-yl)carbamate]: the negative logarithm of the EC50 (pEC50) in experiment [1] (read-out: LE_1a (EC50, range)) was 6.99 to 8.32; in experiment [2] (read-out: LE_1b (EC50, range)), 6.99 to 8.32.

For the molecule `C[C@@H]1CC/C=C\[C@@H]2C[C@@]2(C(=O)NS(=O)(=O)C2CC2)NC(=O)[C@@H]2C[C@@H](Oc3nccc4c5c(ccc34)OC(F)(F)O5)CN2C(=O)[C@@H](NC(=O)OC(C)(C)C(F)(F)F)[C@H](C)C1` [Compound 5268, 1,1,1-trifluoro-2-methylpropan-2-yl((2R,6S,7R,9R,13aS,14aR,16aS,Z)-14a-((cyclopropylsulfonyl)carbamoyl)-2-((2,2-difluoro-[1,3]dioxolo[4,5-f]isoquinolin-6-yl)oxy)-7,9-dimethyl-5,16-dioxo-1,2,3,5,6,7,8,9,10,11,13a,14,14a,15,16,16a-hexadecahydrocyclopropa[e]pyrrolo[1,2-a][1,4]diazacyclopentadecin-6-yl)carbamate], the pEC50 is greater than 8.26 in experiment [1] (read-out: LE_1a (EC50, range)) and greater than 8.26 in experiment [2] (read-out: LE_1b (EC50, range)).

Turning to `C[C@H]1CC/C=C\[C@@H]2C[C@@]2(C(=O)NS(=O)(=O)C2CC2)NC(=O)[C@@H]2C[C@@H](Oc3nccc4c5c(ccc34)OC(F)(F)O5)CN2C(=O)[C@@H](NC(=O)O[C@H](C)C(F)(F)F)[C@H](C)C1` [Compound 5269, (R)-1,1,1-trifluoropropan-2-yl ((2R,6S,7R,9S,13aS,14aR,16aS,Z)-14a-((cyclopropylsulfonyl)carbamoyl)-2((2,2-difluoro-[1,3]dioxolo[4,5-f]isoquinolin-6-yl)oxy)-7,9-dimethyl-5,16-dioxo-1,2,3,5,6,7,8,9,10,11,13a,14,14a,15,16,16a-hexadecahydrocyclopropa[e]pyrrolo[1,2-a][1,4]diazacyclopentadecin-6-yl)carbamate], the pEC50 in experiment [1] (read-out: LE_1a (EC50, range)) is 6.99 to 8.32; in experiment [2] (read-out: LE_1b (EC50, range)), 6.99 to 8.32.

In the case of `C[C@@H]1CC/C=C\[C@@H]2C[C@@]2(C(=O)NS(=O)(=O)C2CC2)NC(=O)[C@@H]2C[C@@H](Oc3nccc4c5c(ccc34)OC(F)(F)O5)CN2C(=O)[C@@H](NC(=O)O[C@H](C)C(F)(F)F)[C@H](C)C1` [Compound 5270, (R)-1,1,1-trifluoropropan-2-yl ((2R,6S,7R,9R,13aS,14aR,16aS,Z)-14a-((cyclopropylsulfonyl)carbamoyl)-2((2,2-difluoro-[1,3]dioxolo[4,5-f]isoquinolin-6-yl)oxy)-7,9-dimethyl-5,16-dioxo-1,2,3,5,6,7,8,9,10,11,13a,14,14a,15,16,16a-hexadecahydrocyclopropa[e]pyrrolo[1,2-a][1,4]diazacyclopentadecin-6-yl)carbamate], the pEC50 in experiment [1] (read-out: LE_1a (EC50, range)) was greater than 8.26; in experiment [2] (read-out: LE_1b (EC50, range)), greater than 8.26.

Take `C[C@H]1CC/C=C\[C@@H]2C[C@@]2(C(=O)NS(=O)(=O)C2CC2)NC(=O)[C@@H]2C[C@@H](Oc3nccc4c5c(ccc34)OC(F)(F)O5)CN2C(=O)[C@@H](NC(=O)OCC2(C)CC2)[C@H](C)C1` [Compound 5271, (1-methylcyclopropyl)methyl ((2R,6S,7R,9S,13aS,14aR,16aS,Z)-14a-((cyclopropylsulfonyl)carbamoyl)-2-((2,2-difluoro-[1,3]dioxolo[4,5-f]isoquinolin-6-yl)oxy)-7,9-dimethyl-5,16-dioxo-1,2,3,5,6,7,8,9,10,11,13a,14,14a,15,16,16a-hexadecahydrocyclopropa[e]pyrrolo[1,2-a][1,4]diazacyclopentadecin-6-yl)carbamate]: the pEC50 in experiment [1] (read-out: LE_1a (EC50, range)) is 6.99 to 8.32; in experiment [2] (read-out: LE_1b (EC50, range)), 6.99 to 8.32.

As to `C[C@@H]1CC/C=C\[C@@H]2C[C@@]2(C(=O)NS(=O)(=O)C2CC2)NC(=O)[C@@H]2C[C@@H](Oc3nccc4c5c(ccc34)OC(F)(F)O5)CN2C(=O)[C@@H](NC(=O)OCC2(C)CC2)[C@H](C)C1` [Compound 5272, (1-methylcyclopropyl)methyl ((2R,6S,7R,9R,13aS,14aR,16aS,Z)-14a-((cyclopropylsulfonyl)carbamoyl)-2-((2,2-difluoro-[1,3]dioxolo[4,5-f]isoquinolin-6-yl)oxy)-7,9-dimethyl-5,16-dioxo-1,2,3,5,6,7,8,9,10,11,13a,14,14a,15,16,16a-hexadecahydrocyclopropa[e]pyrrolo[1,2-a][1,4]diazacyclopentadecin-6-yl)carbamate], the pEC50 in experiment [1] (read-out: LE_1a (EC50, range)) is greater than 8.26; in experiment [2] (read-out: LE_1b (EC50, range)) it was greater than 8.26.

The record behind these values is patent US9499550B2 (BRISTOL-MYERS SQUIBB COMPANY, priority 2012, dated 2016).
